Data published in patent publication US9878984B2, “Anti-cancer compounds” (NORTHWESTERN UNIVERSITY, priority 2008, dated 2018).

What was measured:
[1] = test system: Normal cells (PBMC, HUVEC, and WI-38); assay: Cancer cell selective growth inhibition (cancer cells vs normal cells); format: cell-based, human; conditions: 72 hr MTS
Experimental: […] Peripheral blood mononuclear cells (PBMCs) were voluntarily collected from a healthy laboratory worker by standard sterile phlebotomy techniques and isolated using Vacutainer CPT collection tubes (BD Biosciences—Bedford, Mass.). PBMCs were isolated freshly for each experiment. All DMEM and RPMI-1640 media was supplemented with 10% FBS (Atlanta Biologicals—Lawrenceville, Ga.) and 100 U/mL penicillin and streptomycin (Invitrogen). HUVEC (Human umbilical vein endothelial cells) were cultured in EGM-2 media with supplements provided in the manufacturers BulletKit (Lonza—Walersville, Md.). All cells were maintained at 37° C. and in a 5% CO2 atmosphere.
Growth Inhibition Assays: HeLa, MDA-MB-231, PC-3M, WI-38, and HUVEC cells were plated at 5,000 cells per well in 96 well plates and allowed to attach for 20 hr (8 hr for HeLa). The media was removed and 198 μL of fresh media was added to each well. […] PBMCs were isolated and plated at 100,000 per well in 96 well plates with a volume of 197 μL. They were allowed to settle in the media for 20 hr, at which point 1 μL of 1 mg/mL phytohemagglutinin (Sigma—St. Loius Mo.) in PBS was added to stimulate proliferation (final concentration of 5 μg/mL). […] Cell proliferation was measured at t=0 (time at start of treatment) and t=72 hr using MTS AQueous non-radioactive proliferation assay (Promega—Madison, Wis.). This assay utilizes the metabolic conversion of yellow tetrazolium to a purple formazan by live cells and the color change is proportional to the number of cells. […] The absorbance at 490 nm in each well was read with a Spectramax 250 plate reader (Molecular Devices—Sunnyvale, Calif.). […] Data were fit to one site dose response curves in order to obtain specific growth inhibitory concentrations and the relative standard errors of the mean for these concentrations were calculated by the XLfit4 software. Statistical significance (p value) for the selectivity and all subsequent assays was determined with the two tailed homoscedastic Student's t-test. […]

pBR322 plasmid DNA = assay: DNA intercalation assay (topoisomerase I based plasmid DNA unwinding); format: biochemical; conditions: 10, 31.6, and 100 μM, human topoisomerase I
Experimental: DNA Intercalation Assay: A DNA unwinding assay was performed as previously described with minor modifications. Four Units of recombinant wild type human topoisomerase I (Topogen—Port Orange, Fla.) were incubated with reaction buffer (included with enzyme), ˜0.5 μg of pBR322 plasmid DNA, which is a mixture of form I and form II plasmid DNA, and water added to a final volume of 19 μL. The reactions were incubated at 37° C. for 30 min and then 1 μL of each compound was added to give a final concentration of 10, 31.6, and 100 μM (final solvent concentration of 1% DMSO) and the reaction mixture was incubated at 37° C. for another 30 min. The reaction was stopped by the addition of 5 μL gel loading dye. The samples were immediately loaded onto a 1% agarose gel and electrophoresis was performed at 50 V for 3 h at room temperature. Pictures of the gels were obtained using a Kodak Image Station 440 CF (Kodak—Rochester, N.Y.) equipped with a UV source.
This activity depends on the ability of these compounds to intercalate DNA, which is the proposed mechanism of cytotoxic action of amonafide and its analogs. Therefore, the intercalation of plasmid DNA by A1-A9 was compared with the intercalation by amonafide to determine if they behave similarly. A topoisomerase I (topo I) based plasmid DNA unwinding assay was used to determine the intercalation of each compound [1]. […]

HeLa cells = assay: Transwell invasion assay; format: cell-based, human; conditions: [GI99%], matrigel, 20 hr
Experimental: Transwell Invasion Assay: HeLa cells were plated at 250,000 per 35 mm well and allowed to attach for 8 hr. The cells were washed with PBS and then treated for 4 hr with the [GI99%] of each compound (or 1% DMSO—vehicle control) in serum free media to decrease the number of invading cells in the beginning of the experiment due to a preliminary lack of drug exposure. The cells were then trypsinized and counted by trypan blue exclusion with a hemacytometer (Sigma—St. Louis, Mo.). Eight micron pore size control well inserts for 12 well plates (BD Biosciences) were coated with 100 μL 1 mg/mL matrigel (Sigma—St. Louis, Mo.) and allowed to solidify at room temperature for 1 hr. The excess matrigel was aspirated and the inserts were gently washed with PBS. The cells were seeded at a density of 300,000 per insert well in a volume of 500 μL serum free media containing a derivative or vehicle. The inserts were then placed in wells containing 700 μL serum free media with the respective compound. After 20 hr the cells on the top of the membranes were gently removed with a cotton swab, the membranes then were fixed in methanol for 1 min, stained in Gills No. 3 Hematoxylin (Sigma—St. Louis, Mo.) for 5 min, rinsed in tap water, and allowed to dry overnight. The membranes were excised, mounted on slides, and the cells were counted under the 40× objective of a bright field microscope. The data are expressed as the average total number of invading cells counted in 20 fields of each membrane, as standardized to the vehicle control, from six experiments.
Effect of derivatives on the malignant phenotype—invasion assay: If A1-A9 have differential targets, DNA binding specificity, or downstream effects they may differentially alter the malignant behavior of cells. Also, anti-cancer compounds can be efficacious against tumors in other ways besides inhibiting growth and inducing death of cancer cells; they can also alter the behavior of malignant cells. Therefore, the ability of A1-A9 and amonafide to alter the invasive behavior of cancer cells in a transwell (also known as Boyden chamber) invasion assay was evaluated, which determines the ability of cells to migrate through a proteinacious gel. This behavior is considered to be representative of cancer cell invasion through the basement membrane of the primary tumor environment. In this assay, treated cells are seeded on to the top of the matrigel-coated porous membrane, allowed to invade through the proteinacious gel onto the underside of the membrane, and then counted.

[2] = test system: HeLa, PC-3M, and MDA-MB-231; assay: MTS growth inhibition assay, human cancer cell lines; format: cell-based; conditions: 72 hr, MTS proliferation assay
Experimental: Cell Culture: HeLa (cervical carcinoma), WI-38 (normal human […] fibroblasts), and MDA-MB-231 (breast carcinoma), cells were cultured in DMEM (Invitrogen—Carlsbad, Calif.) and PC-3M (metastatic prostate carcinoma) cells were cultured in RPMI-1640. Peripheral blood mononuclear cells (PBMCs) were voluntarily collected from a healthy laboratory worker by standard sterile phlebotomy techniques and isolated using Vacutainer CPT collection tubes (BD Biosciences—Bedford, Mass.). PBMCs were isolated freshly for each experiment. All DMEM and RPMI-1640 media was supplemented with 10% FBS (Atlanta Biologicals—Lawrenceville, Ga.) and 100 U/mL penicillin and streptomycin (Invitrogen). […]
Growth Inhibition Assays: HeLa, MDA-MB-231, PC-3M, WI-38, and HUVEC cells were plated at 5,000 cells per well in 96 well plates and allowed to attach for 20 hr (8 hr for HeLa). […] Cell proliferation was measured at t=0 (time at start of treatment) and t=72 hr using MTS AQueous non-radioactive proliferation assay (Promega—Madison, Wis.). […] The absorbance at 490 nm in each well was read with a Spectramax 250 plate reader (Molecular Devices—Sunnyvale, Calif.). […] Data were fit to one site dose response curves in order to obtain specific growth inhibitory concentrations and the relative standard errors of the mean for these concentrations were calculated by the XLfit4 software. […]

Chk2 = assay: DNA damage response assay (pThr68-Chk2 / total Chk2 western blot); format: cell-based, human; conditions: HeLa cells, [GI99%], 20 hr, normalized to mitoxantrone
Experimental: DNA Damage Response Assay: 250,000 HeLa cells were plated in 35 mm culture dishes and allowed to attach for 8 hr and were then treated with the [GI99%] of each compound for 20 hr (total media volume was […] with 1% DMSO). After treatment cells were lysed in 150 μL detergent buffer containing 1:100 v/v protease inhibitor cocktail (Sigma—St. Louis, Mo.). Lysates were run on denaturing 12% acrylamide gels and transferred to nitrocellulose membranes. The membranes were blocked in blotto, incubated in anti-pThr68-Chk2 antibody (Cell Signaling—Danvers, Mass.) at 1:500 v/v dilution in blotto overnight 4° C., washed, incubated in HRP conjugated anti-rabbit secondary antibody (Jackson) at 1:5,000 v/v dilution in blotto for 1 hr, and then developed. The membranes were then stripped with a reducing buffer, blocked in blotto, incubated in anti-Chk2 antibody (Biolegend—San Diego, Calif.) at 1:500 v/v dilution in blotto overnight at 4° C., washed, incubated in HRP conjugated anti-mouse secondary antibody (Jackson) at 1:5,000 v/v dilution in blotto for 1 hr, and then developed. Membranes were developed with PicoWest Developing Solution (Pierce) and exposed to film. The intensities of bands were quantified as described in the previous section. The data are expressed as the average ratio of pThr68-Chk2 to total Chk2 as normalized to the mitoxantrone control in each of three independent experiments.
Topoisomerase inhibition by most mechanisms should cause activation of DNA damage response pathways because of the production of single and double strand DNA breaks, as is the case with amonafide. […] Therefore, measuring the DNA damage response at a fixed cytotoxic dose ([GI99%]) will determine the extent that DNA damage contributes to the cytotoxicity of these compounds. […] Activation of Chk2 was determined by measuring the ratio of pThr68-Chk2 to total Chk2 in HeLa cells treated with the [GI99%].

In the case of `CCCCCCNc1ccc2c3c(cccc13)C(=O)N(CCN(C)C)C2=O` [A5, 6-hexylamino-2-[2-(dimethylamino)ethyl]-1H-benz[de]isoquinoline-1,3(2H)-dione], the “cancer cell selective growth inhibition (selectivity)” value [1] is reported as “doing so significantly (p<0.05)” and the DNA intercalation (pBR322 plasmid DNA) is reported as “intercalates much less than the other compounds”.

In the case of `CN(C)CCN1C(=O)c2cccc3cccc(c23)C1=O` [A9, 2-[2-(dimethylamino)ethyl]-1H-benz[de]isoquinoline-1,3(2H)-dione], the “invasive behavior (% invading cells vs vehicle)” value (HeLa cells) is reported as “decreases invasive behavior”, the growth inhibition potency [2] is reported as “still remains fairly potent” and the “DNA damage response (ratio of pThr68-Chk2 to total Chk2)” value (Chk2) is reported as “evoked the strongest DNA damage response”.
